Assays:
Assay in all cases: relative viability (nuclei count vs DMSO), 5 days (fraction); higher = more cells survive
[1] = compound: C1=CC=C(C(=C1)C2=CC=C(C=C2)C3=CSC4=C3C(=C(C(=O)N4)C#N)O)O + CC1(C)CCC(c2ccc(Cl)cc2)=C(CN2CCN(c3ccc(C(=O)NS(=O)(=O)c4ccc(N[C@H](CCN5CCOCC5)CSc5ccccc5)c(S(=O)(=O)C(F)(F)F)c4)cc3)CC2)C1 [Navitoclax] (partner 0.5 µM)
In short: (§1)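 After 5 days of treatment, lung cancer cells in 1536-well plates were fixed and stained in a single step (final 0.05% Triton X-100, 1% formaldehyde, 1 ug/ml Hoechst) and their nuclei counted on 4× images. Treatment had been applied by pin tool the day after seeding as one drug alone or as a fixed anchor-drug dose with five library-drug doses (not always all listed) in √10 steps. Relative viability is the nuclei count of treated wells divided by that of vehicle wells, and values are medians of duplicate plates.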

[2] = compound: C1=CC=C(C(=C1)C2=CC=C(C=C2)C3=CSC4=C3C(=C(C(=O)N4)C#N)O)O + NC(=O)Nc1cc(-c2cccc(F)c2)sc1C(=O)N[C@H]1CCCNC1 [AZD7762] (partner 0.2 µM)
In short: as §1

TGX 221 + Palbociclib = compound: CC1=CN2C(=O)C=C(N=C2C(=C1)C(C)NC3=CC=CC=C3)N4CCOCC4 [TGX 221] + CC(=O)c1c(C)c2cnc(Nc3ccc(N4CCNCC4)cn3)nc2n(C2CCCC2)c1=O [Palbociclib] (partner 0.5 µM)
In short: as §1

[3] = compound: O=C(CCCCCCNC(=O)c1cnc(N(c2ccccc2)c2ccccc2)nc1)NO [Ricolinostat] + CC(=O)c1c(C)c2cnc(Nc3ccc(N4CCNCC4)cn3)nc2n(C2CCCC2)c1=O [Palbociclib] (partner 0.5 µM)
In short: as §1

| Cell Line | relative viability ([1]; first compound 0.08 µM) | relative viability ([1]; first compound 0.253 µM) | relative viability ([1]; first compound 0.8 µM) | relative viability ([1]; first compound 2.53 µM) | relative viability ([1]; first compound 8 µM) | relative viability ([2]; first compound 0.08 µM) | relative viability ([2]; first compound 0.253 µM) | relative viability ([2]; first compound 0.8 µM) | relative viability ([2]; first compound 2.53 µM) | relative viability ([2]; first compound 8 µM) | relative viability (TGX 221 + Palbociclib; first compound 0.08 µM) | relative viability (TGX 221 + Palbociclib; first compound 0.253 µM) | relative viability (TGX 221 + Palbociclib; first compound 0.8 µM) | relative viability (TGX 221 + Palbociclib; first compound 2.53 µM) | relative viability (TGX 221 + Palbociclib; first compound 8 µM) | relative viability ([3]; first compound 0.253 µM) | relative viability ([3]; first compound 0.8 µM) | relative viability ([3]; first compound 2.53 µM) | relative viability ([3]; first compound 0.08 µM) |
| --- | --- | --- | --- | --- | --- | --- | --- | --- | --- | --- | --- | --- | --- | --- | --- | --- | --- | --- | --- |
| LOU-NH91 | 0.693 | 0.722 | 0.658 | 0.638 | 0.551 | 0.79 | 0.804 | 0.745 | 0.733 | 0.701 | 0.612 | 0.511 | 0.448 | 0.492 | 0.517 | 0.526 | 0.587 | 0.514 | – |
| NCI-H1755 | 1.03 | 1.13 | 0.98 | 1.08 | 0.78 | 0.44 | 0.466 | 0.572 | 0.435 | 0.377 | 0.36 | 0.422 | 0.385 | 0.421 | 0.436 | 0.458 | 0.493 | 0.453 | 0.463 |
| NCI-H1793 | 0.406 | 0.753 | 0.41 | 0.443 | 0.359 | 0.401 | 0.411 | 0.473 | 0.53 | 0.432 | 0.282 | 0.277 | 0.271 | 0.273 | 0.223 | 0.31 | 0.281 | 0.329 | 0.306 |
| EMC-BAC-2 | 0.963 | 1.28 | 1.2 | 1.46 | 0.774 | 1.05 | 1.21 | 1.11 | 0.981 | 0.939 | 0.493 | 0.492 | 0.51 | 0.547 | 0.439 | 0.496 | 0.47 | 0.405 | 0.525 |
| H3255 | 0.534 | 0.431 | 0.53 | 0.602 | 0.444 | 0.898 | 1.07 | 0.757 | 0.9 | 0.848 | 0.312 | 0.342 | 0.331 | 0.29 | 0.321 | 0.307 | 0.292 | 0.33 | 0.336 |
| PC-14 | 0.951 | 0.992 | 1.15 | 1.1 | 0.798 | 0.316 | 0.272 | 0.332 | 0.363 | 0.24 | 0.539 | 0.408 | 0.543 | 0.577 | 0.397 | 0.478 | 0.462 | 0.406 | 0.57 |
| HARA | – | 1.41 | 1.19 | 1.15 | 1.02 | 0.286 | 0.361 | 0.345 | 0.284 | 0.304 | 0.264 | 0.28 | 0.268 | 0.232 | 0.246 | 0.288 | 0.238 | 0.248 | 0.269 |
| NCI-H1395 | – | 1.21 | 1.15 | 1.05 | 1.12 | – | 0.397 | 0.395 | 0.353 | 0.419 | 0.609 | 0.537 | 0.51 | 0.467 | 0.487 | 0.603 | 0.662 | 0.702 | – |
| NCI-H2170 | 0.616 | 0.683 | 0.601 | 0.561 | 0.465 | 0.898 | 0.722 | 0.875 | 0.842 | 0.548 | 0.332 | 0.423 | 0.393 | 0.365 | 0.334 | 0.405 | 0.385 | 0.354 | 0.388 |
| NCI-H647 | 0.877 | 1.16 | 1.24 | 1.21 | 0.741 | 0.294 | 0.337 | 0.276 | 0.39 | 0.301 | 0.296 | 0.297 | 0.283 | 0.232 | 0.275 | 0.338 | 0.407 | 0.266 | 0.391 |
| CAL-12T | – | 1.23 | 1.22 | 1.45 | 1.06 | 0.671 | 0.653 | 0.571 | 0.615 | 0.648 | 0.466 | 0.556 | 0.467 | 0.326 | 0.0733 | 0.464 | 0.413 | 0.43 | 0.443 |
| 201T | 1.25 | 1.18 | 1.19 | 1.18 | 1.26 | 0.634 | 0.616 | 0.652 | 0.704 | 0.717 | 0.356 | 0.348 | 0.331 | 0.337 | 0.32 | 0.356 | 0.36 | 0.369 | 0.362 |
| HCC-366 | 0.959 | 1.18 | 1.05 | 1.11 | 0.501 | – | 0.342 | 0.259 | 0.281 | 0.273 | 0.387 | 0.358 | 0.418 | 0.368 | 0.297 | 0.335 | 0.344 | 0.257 | 0.383 |
| NCI-H1944 | 1.05 | 1.03 | 1.02 | 1.1 | 1.08 | 0.67 | 0.537 | 0.696 | 0.469 | 0.603 | – | 0.327 | 0.332 | 0.277 | 0.245 | 0.307 | 0.309 | 0.297 | 0.332 |
| NCI-H1648 | – | – | – | – | – | – | 0.676 | 0.734 | 0.689 | 0.608 | – | 0.247 | 0.231 | 0.25 | 0.273 | 0.305 | 0.252 | 0.196 | – |
| ABC-1 | – | – | – | – | – | 0.781 | 0.881 | 0.799 | 0.855 | 0.827 | 0.742 | 0.519 | 0.654 | 0.648 | 0.597 | 0.631 | 0.8 | 0.612 | 0.585 |

From the supplement of paper PMC10307832
